Assay results reported in PMC10301432, “Antiplasmodial, Trypanocidal, and Genotoxicity In Vitro Assessment of New Hybrid α,α-Difluorophenylacetamide-statin Derivatives” (Pharmaceuticals, 2023).
Entries after “also recorded” stand apart in the source; their conditions may differ.

Key:
[1] = system: Salmonella enterica serovar Typhimurium TA98; assay: Salmonella/microsome assay, TA98
Experimental: (§1) Salmonella enterica serovar Typhimurium (S. typhimurium) strains TA97, TA98, TA100, TA104 and TA102 from the authors’ stock were used as described in the mutagenicity assay.
(§2) To determine the cytotoxic effects, after 30 min pre-incubation, the assay mixtures were diluted in 0.9% NaCl (w/v) to obtain a suspension containing 2 × 10^2 cells/mL. […] The plates were then incubated at 37 °C for 24 h and the colonies counted. All the experiments were conducted in triplicate and were repeated at least twice. Statistical differences between the groups were analyzed by a two-way ANOVA (p < 0.05) and Tukey’s post hoc test.

[2] = system: P. falciparum parasites (W2 clone) chloroquine-resistant; assay: Antiplasmodial activity, anti-HRPII assay; type: cell-based, Plasmodium falciparum
Description: P. falciparum W2 clone was maintained in continuous culture as previously described. […] Prior to testing, the ring-stage parasites were synchronized using sorbitol.
The test quantification was read at 450 nm on a spectrophotometer (SpectraMax340PC384, Molecular Devices Sunnyvale, CA, USA), and the drug activity was expressed as the half-maximal inhibitory concentration (EC50) compared to the drug-free controls using the curve-fitting software Origin 8.0 (OriginLab Corporation, Northampton, MA, USA).

[3] = Salmonella/microsome assay, TA104; conditions: Salmonella enterica serovar Typhimurium, S. typhimurium TA104 with S9 mix, LC50 (bacterial cytotoxicity) TA104, presence of S9 mix
Experimental: as §1, §2

[4] = system: Salmonella enterica serovar Typhimurium TA104; assay: Salmonella/microsome assay, TA104
Experimental: as §1, §2

in vitro = type: cell-based; conditions: mouse
Experimental: Cardiac cell cultures were incubated for 24 h at 37 °C with different concentrations of the compounds (up to 200 µM) diluted in DMEM (without phenol red). Their morphology and spontaneous contractibility were evaluated by light microscopy and then the cellular viability was determined by the PrestoBlue® assay. For this colorimetric bioassay, PrestoBlue® (Invitrogen, Waltham, MA, USA) was added to each well (using a 10:1 medium/dye), the plate was further incubated for 24 h followed by optical density (OD) measurement performed at 570 and 600 nm, as recommended by the manufacturer.

[5] = system: trypomastigote forms of T. cruzi (Y strain); assay: Trypanocidal activity on bloodstream trypomastigotes; type: cell-based, Trypanosoma cruzi; conditions: Trypanosoma cruzi; bloodstream trypomastigotes, Y strain; 24 h at 37 °C
Experimental: (§3) Bloodstream trypomastigote forms (BT) of the Y strain were obtained from infected albino Swiss mice at the peak of parasitemia, isolated by differential centrifugation and resuspended in DMEM to a parasite concentration of 10^7 cells/mL in the presence of 10% of mouse blood. This suspension (100 µL) was added in the same volume of 13 (a–d) and 14 (a–d) previously prepared at twice the desired final concentrations.

HepG2 cells = assay: In vitro micronuclei assay, HepG2; type: cell-based, human; conditions: HepG2; 3 h of exposure
Experimental: Fresh HepG2 and CHO-K1 cells were seeded at the density of 1 × 10^5 cells/mL into 24-well plates (1 mL/per well). The compounds 13 (a–d) were then added to the medium to final concentrations of 500, 1000 and 2000 µM and incubation continued for 3 h or 24 h. DMSO 10% was used as the negative control, and, BaP (80 µM) for HepG2 and MMC (5 µM) for CHO-K1 were the positive controls. After exposure to the compounds, the cells were incubated for more than 24 h under growth conditions before quantification of the micronuclei and cytotoxicity. The cytogenetic studies were carried out in triplicate as described previously (see [51]). In order to determine the mitotic index and the number of cells with micronuclei, the medium was replaced by a cold methanol-glacial acetic acid (3:1) fixative for 30 min, and the cells then rinsed with distilled water for 2 min and air dried. The fixed cells were stained with 4,6-diamidino-2-phenylindole (DAPI) ([…]) dissolved in McIlvaine buffer (0.1 M citric acid plus 0.2 M Na2HPO4, pH 7.0) for 60 min, washed with McIlvaine buffer for 5 min, briefly rinsed with distilled water and mounted in glycerol. To determine the mitotic index and the number of cells with micronuclei, 1000 cells per well (3000 cells per concentration) were analyzed under a fluorescence microscope. The results for micronuclei were presented as the percentage of cells containing micronuclei in the 3000 cells/concentration group analyzed. Cells that glowed brightly and had homogenous nuclei were considered as having normal phenotypic morphology. Apoptotic nuclei were identified by the condensed chromatin at the periphery of the nuclear membrane or by fragmented nuclear body morphology. Necrotic cells presented chromatin forms with irregularly shaped aggregates, a pyknotic nucleus (shrunken and darkly stained) and cell membrane disruption, with cellular debris spilled into the extracellular milieu. Once again, 3000 cells were counted and the percentage of viable cells was evaluated, discounting apoptotic and necrotic cells. Statistical differences between the groups were analyzed by two-way ANOVA (p < 0.01) and Tukey’s post hoc test.

T. cruzi = assay: Trypanocidal in vitro phenotypic screening, overall outcome; type: cell-based, Trypanosoma cruzi; conditions: summarized outcome
Experimental: as §3
Tissue culture-derived trypomastigotes (Tulahuen strain expressing the E. coli β-galactosidase gene) were maintained in L929 cell lines and collected from the supernatant after 96 h of parasite infection, following previously established protocols. Briefly, after 24 h of L929 platting (4 × 10^3 cells/well), the cultures were incubated with trypomastigotes (10:1 parasite/host cell ratio) for 2 h at 37 °C. Then, the cell cultures were rinsed to remove non-internalized parasites and then further incubated for 24 h at 37 °C. Then the infected cultures were followed using two sequential protocols. […] After this period, 50 µL chlorophenol red glycoside (500 µM) in 0.5% Nonidet P40 was added to each well and the plate was incubated for more than 18 h at 37 °C, after which the absorbance was measured at 570 nm. Then, the compounds were next evaluated using dose–response assays in which Tulahuen-infected-L929 cells were exposed to different non-toxic concentrations of each compound (0–50 µM) and then after 96 h of incubation the same procedure was conducted as above reported. Controls with untreated and Bz-treated cells are run in parallel. The results were expressed as the percent difference in the reduction between treated and untreated cells.

CC(=O)Nc1ccccc1C(F)(F)C(=O)NCC[C@@H]1C[C@H](CC(=O)OC(C)(C)C)OC(C)(C)O1 [Compound 13a, tert-Butyl 2-((4R,6R)-6-(2-(2-(2-acetamidophenyl)-2,2-difluoroacetamido)ethyl)-2,2-dimethyl-1,3-dioxan-4-yl)acetate]
revertant His+ colonies TA98 ([1]; +S9, 3 µM): 25 ± 8 | revertant His+ colonies TA98 ([1]; +S9, 15 µM): 25 ± 4 | revertant His+ colonies TA98 ([1]; +S9, 30 µM): 26 ± 5 | revertant His+ colonies TA98 ([1]; +S9, 150 µM): 27 ± 1 | revertant His+ colonies TA98 ([1]; +S9, 300 µM): 33 ± 1 | revertant His+ colonies TA98 ([1]; +S9, 1500 µM): 36 ± 3 | revertant His+ colonies TA98 ([1]; −S9, 3 µM): 24 ± 3 | revertant His+ colonies TA98 ([1]; −S9, 15 µM): 29 ± 6 | revertant His+ colonies TA98 ([1]; −S9, 30 µM): 31 ± 8 | revertant His+ colonies TA98 ([1]; −S9, 150 µM): 32 ± 3 | revertant His+ colonies TA98 ([1]; −S9, 300 µM): 52 ± 4 | revertant His+ colonies TA98 ([1]; −S9, 1500 µM): 61 ± 5 | mutagenicity to TA98 ([1]; −S9, at concentrations above 300 µM): significant mutagenicity; also recorded: enhanced the number of revertants | SI ([2]; LC50 (HepG2)/EC50 (P. falciparum)): Inactive | EC50 ([2]; Plasmodium falciparum, W2, 24 h, P. falciparum W2 clone, 24 h at 37 °C, read-out: EC50): > 62 µM | Antiplasmodial Activity ([2]; summarized outcome): No | CC50 at 30 min [3]: 1280 ± 21.1 µM | revertant His+ colonies TA104 ([4]; +S9, 3 µM): 390 ± 49 | revertant His+ colonies TA104 ([4]; +S9, 15 µM): 417 ± 15 | revertant His+ colonies TA104 ([4]; +S9, 30 µM): 467 ± 19 | revertant His+ colonies TA104 ([4]; +S9, 150 µM): 330 ± 9 | revertant His+ colonies TA104 ([4]; +S9, 300 µM): 268 ± 37 | revertant His+ colonies TA104 ([4]; +S9, 1500 µM): Cytotoxic | revertant His+ colonies TA104 ([4]; −S9, 3 µM): 264 ± 27 | revertant His+ colonies TA104 ([4]; −S9, 15 µM): 307 ± 18 | revertant His+ colonies TA104 ([4]; −S9, 30 µM): 314 ± 26 | revertant His+ colonies TA104 ([4]; −S9, 150 µM): 315 ± 36 | revertant His+ colonies TA104 ([4]; −S9, 300 µM): 316 ± 33 | revertant His+ colonies TA104 ([4]; −S9, 1500 µM): 350 ± 21 | CC50 at 96 h (in vitro): 112 ± 28.3 µM | EC50 [5]: > 500 µM | cytotoxicity (survival rate) in micronuclei assay (HepG2 cells): significant cytotoxic effects upon 1000 µM | micronuclei formation (genotoxicity) (HepG2 cells): did not induce micronuclei formation; also recorded: non-genotoxic | Trypanocidal Activity (T. cruzi): No
